For orientation: inhibition means the drop in the measured response relative to a control, in per cent. Lower therefore signals a weak effect. As a reminder, the IC50 is the point on the concentration scale where inhibition reaches its midpoint.

Results on 33 compounds are retold here after US6228868A, “Oxazoline antiproliferative agents” (Abbott Laboratories, priority 1999, dated 2001).

The test system of assay [1] is NCI-H460 cells. Nature of the assay: 48-hour cellular proliferation assay, sulforhodamine stain (human lung large cell carcinoma, MDR negative). Format: cell-based. The conditions noted are these: for NCI-460 (% Inhibition at 10^-4 M) / inhibition at 100 µM: NCI-460 cells, 10^-4 M; for inhibition at 100 µM / IC50: Homo sapiens; for IC50: NCI-H460 cells. The method, then:
(§1) Compounds of this invention were tested in a 48-hour cellular proliferation assay that uses human colon adenocarcinoma, MDR positive (HCT-15) cells, and human lung large cell carcinoma, MDR negative (NCI-H460) cells, in the 96-well microtitre format described in Skehan P., et al. New Colorimetric Cytotoxicity Assay for Anticancer Drug Screening. 1990, J. Natl. Cancer Inst. 82:1107-1112, hereby incorporated by reference. Briefly, the wells of a microtitre plate were charged sequentially with cultured cells and compounds of the invention (1.0×10^-4 to 1.0×10^-11 M in 10% DMSO prepared by dissolving compounds of the invention in DMSO and adding 11 μL of the DMSO solution to 100 μL of culture medium for a final DMSO concentration of 10%). Two of the following controls were also present in each microtitre plate: a solvent (DMSO) control without drug that yielded a 0% inhibition level and a trichloroacetic acid-treated well that yielded a 100% inhibition level. The cells were grown in culture (37° C., 5% CO2 atmosphere) for 48 hours then fixed by the addition of trichloroacetic acid. The wells were stained with sulforhodamine, washed with 1% acetic acid, and treated with 0.01 M tris buffer (100 μL) to solubilize the adherent dye. The absorbance of the dye solution was measured with a Molecular Devices SpectraMax340 plate reader. Percent inhibition and Inhibitory Concentrations (IC50) values were obtained by calculating the proportional response of the experimental values to the absorbance values of the controls.

In assay [2] the test system is HCT-15 cells. Nature of the assay: 48-hour cellular proliferation assay, sulforhodamine stain (human colon adenocarcinoma, MDR positive). The conditions noted are these: for inhibition at 100 µM / IC50: Homo sapiens; for HCT-15 (% Inhibition at 10^-4 M) / inhibition at 100 µM: 10^-4 M. The class given is cell-based. As to the method:
as §1

On to “2-(3-hydroxy-4-methoxyphenyl)-4-dimethyl-5-(3,4,5-trimethoxyphenyl)-Δ2,3-oxazoline [Example 13]”, for which the “NCI-460 (% Inhibition at 10^-4 M)” value in assay [1] came to 100%. Moreover, the “HCT-15 (% Inhibition at 10^-4 M)” value in assay [2] is on record as 100%.
For `COc1cc(C2CN=C(c3ccc(N(C)C)cc3)O2)cc(OC)c1OC` (stereo not shown) [Example 1, 2-(4-dimethylaminophenyl)-5-(3,4,5-trimethoxyphenyl)-Δ2,3-oxazoline], the inhibition at 100 µM in assay [1] and in assay [2] was 100% in each case.
On to `COc1ccc(C2=NCC(c3cc(OC)c(OC)c(OC)c3)O2)cc1O` (stereo not shown) [Example 2, 2-(3-hydroxy-4-methoxyphenyl)-5-(3,4,5-trimethoxyphenyl)-Δ2,3-oxazoline], for which the inhibition at 100 µM in assay [1] and in assay [2] was 100% each time.
`COc1ccc(C2=NCC(c3cc(OC)c(OC)c(OC)c3)O2)cc1` (stereo not shown) [Example 3, 2-(4-methoxyphenyl)-5-(3,4,5-trimethoxyphenyl)-Δ2,3-oxazoline]: the inhibition at 100 µM in assay [1] and in assay [2] was 100% each time.
Regarding `COc1cc(OC)cc(C2=NCC(c3cc(OC)c(OC)c(OC)c3)O2)c1` (stereo not shown) [Example 4, 2-(3,5-dimethoxyphenyl)-5-(3,4,5-trimethoxyphenyl)-Δ2,3-oxazoline], the inhibition at 100 µM in assay [1] and in assay [2] was 100% each time.
In the case of `COc1cc(C2CN=C(c3ccc4[nH]cc(C(C)=O)c4c3)O2)cc(OC)c1OC` (stereo not shown) [Example 5, 2-(3-acetylindol-5-yl)-5-(3,4,5-trimethoxyphenyl)-Δ2,3-oxazoline], the “NCI-460 (% Inhibition at 10^-4 M)” value in assay [1] is reported as 100%. Further, the “HCT-15 (% Inhibition at 10^-4 M)” value in assay [2] came to 100%.
As for `COc1cc(C2CN=C(c3ccc4c(ccn4C)c3)O2)cc(OC)c1OC` (stereo not shown) [Example 6, 2-(1-methylindol-5-yl)-5-(3,4,5-trimethoxyphenyl)-Δ2,3-oxazoline], the inhibition at 100 µM in assay [1] and in assay [2] was 100% each time.
Regarding `COc1cc(C2CN=C(c3c[nH]c4ccccc34)O2)cc(OC)c1OC` (stereo not shown) [Example 7, 2-(indol-3-yl)-5-(3,4,5-trimethoxyphenyl)-Δ2,3-oxazoline], the inhibition at 100 µM in assay [1] and in assay [2] was 100% in each case.
As for `COc1cc(C2CN=C(c3cc4ccccc4[nH]3)O2)cc(OC)c1OC` (stereo not shown) [Example 8, 2-(indol-2-yl)-5-(3,4,5-trimethoxyphenyl)-Δ2,3-oxazoline], the inhibition at 100 µM in assay [1] and in assay [2] was 100% throughout.
For `COCn1ccc2cc(C3=NCC(c4cc(OC)c(OC)c(OC)c4)O3)ccc21` (stereo not shown) [Example 9, 2-(1-methoxymethylindol-5-yl)-5-(3,4,5-trimethoxyphenyl)-Δ2,3-oxazoline], the inhibition at 100 µM in assay [1] and in assay [2] was 100% each time.
As to `COc1cc(C2=NCC(c3cc(OC)c(OC)c(OC)c3)O2)ccc1N` (stereo not shown) [Example 10, 2-(4-amino-3-methoxyphenyl)-5-(3,4,5-trimethoxyphenyl)-Δ2,3-oxazoline], the inhibition at 100 µM in assay [1] and in assay [2] was 100% in each case.
As to `COc1cc(C2CN=C(c3ccc4[nH]ccc4c3)O2)cc(OC)c1OC` (stereo not shown) [Example 11, 2-(indol-5-yl)-5-(3,4,5-trimethoxyphenyl)-Δ2,3-oxazoline], the inhibition at 100 µM in assay [1] and in assay [2] was 100% throughout.
Turning to `COc1cc(C2CN=C(c3ccc(N)c(C)c3)O2)cc(OC)c1OC` (stereo not shown) [Example 12, 2-(4-amino-3-methylphenyl)-5-(3,4,5-trimethoxyphenyl)-Δ2,3-oxazoline], the inhibition at 100 µM in assay [1] and in assay [2] was 100% throughout.
As to `COc1cc(C2CN=C(c3ccc4c(c3)CCCN4C)O2)cc(OC)c1OC` (stereo not shown) [Example 14, 2-(N-methyl-tetrahydroquinol-6-yl)-5-(3,4,5-trimethoxyphenyl)-Δ2,3-oxazoline], the inhibition at 100 µM in assay [1] and in assay [2] was 100% in each case.
Take `COc1cc(C2CN=C(C3CC3C)O2)cc(OC)c1OC` (stereo not shown) [Example 15, 2-(2-methyl-cyclopropyl)-5-(3,4,5-trimethoxyphenyl)-Δ2,3-oxazoline]: the inhibition at 100 µM in assay [1] and in assay [2] was 50% in each case.
As for `CCOc1ccc(C2=NCC(c3cc(OC)c(OC)c(OC)c3)O2)cc1` (stereo not shown) [Example 16, 2-(4-ethoxyphenyl)-5-(3,4,5-trimethoxyphenyl)-Δ2,3-oxazoline], the inhibition at 100 µM in assay [1] was determined as 90.7%; in assay [2], 96.2%.
For `COc1ccc(C2=NCC(c3cc(OC)c(OC)c(OC)c3)O2)cc1OC` (stereo not shown) [Example 17, 2-(3,4-dimethoxyphenyl)-5-(3,4,5-trimethoxyphenyl)-Δ2,3-oxazoline], the inhibition at 100 µM came to 85.8% in assay [1] and 91% in assay [2].
On the same counts, the results for `COc1cc(C2=NCC(c3cc(OC)c(OC)c(OC)c3)O2)ccc1OCc1ccccc1` (stereo not shown) [Example 18, 2-(4-benzyloxy-3-methoxyphenyl)-5-(3,4,5-trimethoxyphenyl)-Δ2,3-oxazoline] are 92.2% and 96%.
Turning to `COc1cc(C2CN=C(c3cc(Br)cc4c3OCC4)O2)cc(OC)c1OC` (stereo not shown) [Example 19, 2-(2,3-dihydro-5-bromo-7-benzofuranyl)-5-(3,4,5-trimethoxyphenyl)-Δ2,3-oxazoline], the inhibition at 100 µM in assay [1] turned out to be 100%; in assay [2] it was 98.9%.
Consider `COc1ccc(C2=NCC(c3cc(OC)c(OC)c(OC)c3)O2)cc1OC(C)=O` (stereo not shown) [Example 20, 2-(3-acetoxy-4-methoxyphenyl)-5-(3,4,5-trimethoxyphenyl)-Δ2,3-oxazoline], for which the figures for the inhibition at 100 µM in assay [1] and in assay [2] were 100% and 91%, respectively.
In the case of `COc1cc(C2CN=C(c3ccc4c(c3)CCN4C)O2)cc(OC)c1OC` (stereo not shown) [Example 21, 2-(1-methyl-2,3-dihydro-indol-5-yl)-5-(3,4,5-trimethoxyphenyl)-Δ2,3-oxazoline], the inhibition at 100 µM is 92.4% in assay [1] and 100% in assay [2].
Consider `COc1cc(C2CN=C(c3ccc4cc[nH]c4c3)O2)cc(OC)c1OC` (stereo not shown) [Example 27, 2-(6-indolyl)-5-(3,4,5-trimethoxyphenyl)-Δ2,3-oxazoline], for which the IC50 in assay [1] (values in nM) is 170 nM; in assay [2] (values in nM) it was 83 nM.
Turning to `COc1cc(C2CN=C(c3ccc4ccn(C)c4c3)O2)cc(OC)c1OC` (stereo not shown) [Example 28, 2-(1-methylindol-6-yl)-5-(3 4.5-trimethoxyphenyl)-Δ2,3-oxazoline], the IC50 in assay [1] (values in nM) came to 390 nM; in assay [2] (values in nM) it was 210 nM.
In the case of `COc1cc(C2CN=C(c3cccc4[nH]ccc34)O2)cc(OC)c1OC` (stereo not shown) [Example 29, 2-(4-indolyl)-5-(3,4,5-trimethoxyphenyl)-Δ2,3-oxazoline], the IC50 in assay [1] (values in nM) is 60 nM; in assay [2] (values in nM), 39 nM.
On the same counts, the results for `COc1cc(C2CN=C(c3cccc4c3ccn4C)O2)cc(OC)c1OC` (stereo not shown) [Example 30, 2-(1-methylindol-4-yl)-5-(3,4,5-trimethoxyphenyl)-Δ2,3-oxazoline] are 28 nM and 24 nM.
The like results for `COc1cc(C2CN=C(c3cccc4cc[nH]c34)O2)cc(OC)c1OC` (stereo not shown) [Example 31, 2-(7-indolyl)-5-(3,4,5-trimethoxyphenyl)-Δ2,3-oxazoline] were, in that order, 470 nM and 580 nM.
As for `COc1cc(C2CN=C(c3cccc4ccn(C)c34)O2)cc(OC)c1OC` (stereo not shown) [Example 32, 2-(1-methylindol-7-yl)-5-(3,4,5-trimethoxyphenyl)-Δ2,3-oxazoline], half-maximal inhibition in assay [2] (values given in μM) (IC50) was put at 16000 nM.
On to `COc1cc(C2CN=C(c3cn(C)c4ccccc34)O2)cc(OC)c1OC` (stereo not shown) [Example 33, 2-(1-methylindol-3-yl)-5-(3,4,5-trimethoxyphenyl)-Δ2,3-oxazoline], for which the figures for the 50% inhibitory concentration (IC50) in assay [1] (values in nM) and in assay [2] (values in nM) were 120 nM and 32 nM, respectively.
As to `COc1cc(C2CN=C(c3cc4ccccc4n3C)O2)cc(OC)c1OC` (stereo not shown) [Example 34, 2-(1-methyl-indol-2-yl)-5-(3,4,5-trimethoxyphenyl)-Δ2,3-oxazoline], the values for the concentration for half-maximal inhibition (IC50) in assay [1] (values in nM) and in assay [2] (values in nM) were 1500 nM and 650 nM, respectively.
Take `COc1cc(C2CN=C(c3ccc4ncccc4c3)O2)cc(OC)c1OC` (stereo not shown) [Example 35, 2-(6-guinolinvl)-5-(3,4,5-trimethoxyphenyl)-Δ2,3-oxazoline]: the half-maximal inhibitory concentration (IC50) in assay [1] (values given in μM) amounted to 3200 nM; in assay [2] (values given in μM), 2400 nM.
For the compound `COc1cc(C2CN=C(c3ccnc4ccccc34)O2)cc(OC)c1OC` (stereo not shown) [Example 37, 2-(4-quinolinyl)-5-(3,4,5-trimethoxyphenyl)-Δ2,3-oxazoline], the values for the IC50 in assay [1] (values given in μM) and in assay [2] (values given in μM) were 37000 nM and 44000 nM, respectively.
As to `COc1cc(C2CN=C(c3nccc4ccccc34)O2)cc(OC)c1OC` (stereo not shown) [Example 38, 2-(1-isoquinolinyl)-5-(3,4,5-trimethoxyphenyl)-Δ2,3-oxazoline], the IC50 in assay [1] (values given in μM) is 78000 nM; in assay [2] (values given in μM), 63000 nM.
`COc1cc(C2CN=C(c3ccc4[nH]cc(C(=O)C(F)(F)F)c4c3)O2)cc(OC)c1OC` (stereo not shown) [Example 76, 2-(3-trifluoroacetyl-5-indolyl)-5-(3,4,5-trimethoxyphenl)-Δ2,3-oxazoline] registered an IC50 in assay [2] (values given in μM) of 1300 nM.
